# Tests used:
# hOX1R = hOX1R (Homo sapiens, UniProt O43613); experiment: FLIPR Ca2+ Flux Assay, orexin-1 receptor; format: cell-based; conditions: CHO cells expressing orexin-1 receptor; agonist 70 pM Ala-6,12 orexin-A
# human orexin-2 receptor = human orexin-2 receptor (Homo sapiens (Human), UniProt O43614); experiment: FLIPR Ca2+ Flux Assay, orexin-2 receptor; format: cell-based; conditions: CHO cells expressing the human orexin-2 receptor; agonist 70 pM Ala-6,12 orexin-A; read-out: hOX2R FLIPR IC50
# human orexin-2 receptor, sequence (O43614 whole entry): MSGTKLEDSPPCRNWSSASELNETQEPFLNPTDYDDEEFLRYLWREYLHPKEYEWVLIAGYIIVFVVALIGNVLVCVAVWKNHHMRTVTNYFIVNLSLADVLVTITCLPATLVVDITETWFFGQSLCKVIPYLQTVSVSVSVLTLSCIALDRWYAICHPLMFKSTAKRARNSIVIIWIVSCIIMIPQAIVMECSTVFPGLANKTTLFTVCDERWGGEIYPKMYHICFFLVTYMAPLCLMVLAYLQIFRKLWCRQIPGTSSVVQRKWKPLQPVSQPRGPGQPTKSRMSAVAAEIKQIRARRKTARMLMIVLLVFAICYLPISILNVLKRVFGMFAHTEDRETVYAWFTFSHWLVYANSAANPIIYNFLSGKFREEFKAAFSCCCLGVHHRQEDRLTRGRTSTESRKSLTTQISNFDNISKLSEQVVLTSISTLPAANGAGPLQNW
# Protocol: In a typical experiment the OX1 and OX2 receptor antagonistic activity of the compounds of the present invention was determined in accordance with the following experimental method. For intracellular calcium measurements, Chinese hamster ovary (CHO) cells expressing the rat orexin-1 receptor or the human orexin-2 receptor, are grown in Iscove's modified DMEM containing 2 mM L-glutamine, […], 1% hypoxanthine-thymidine supplement, 100 U/ml penicillin, 100 μg/ml streptomycin and 10% heat-inactivated fetal calf serum (FCS). The cells are seeded at 20,000 cells/well into Becton-Dickinson black 384-well clear bottom sterile plates coated with poly-D-lysine. All reagents were from GIBCO-Invitrogen Corp. The seeded plates are incubated overnight at 37° C. and 5% CO2. Ala-6,12 human orexin-A as the agonist is prepared as a 1 mM stock solution in 1% bovine serum albumin (BSA) and diluted in assay buffer (HBSS containing 20 mM HEPES, 0.1% BSA and 2.5 mM probenecid, pH7.4) for use in the assay at a final concentration of 70 pM. Test compounds are prepared as 10 mM stock solution in DMSO, then diluted in 384-well plates, first in DMSO, then assay buffer. On the day of the assay, cells are washed 3 times with 100 μl assay buffer and then incubated for 60 min (37° C., 5% CO2) in 60 μl assay buffer containing 1 μM Fluo-4 AM ester, 0.02% pluronic acid, and 1% BSA. The dye loading solution is then aspirated and cells are washed 3 times with 100 μl assay buffer. 30 μl of that same buffer is left in each well. Within the Fluorescent Imaging Plate Reader (FLIPR, Molecular Devices), test compounds are added to the plate in a volume of 25 μl, incubated for 5 min and finally 25 μl of agonist is added. Fluorescence is measured for each well at 1 second intervals for 5 minutes and the height of each fluorescence peak is compared to the height of the fluorescence peak induced by 70 pM Ala-6,12 orexin-A with buffer in place of antagonist. […] Alternatively, compound potency can be assessed by a radioligand binding assay (described in Bergman et. al. Bioorg. Med. Chem. Lett. 2008, 18, 1425-1430) in which the inhibition constant (Ki) is determined in membranes prepared from CHO cells expressing either the OX1 or OX2 receptor. The intrinsic orexin receptor antagonist activity of a compound which may be used in the present invention may be determined by these assays.
SMILES,IC50 (hOX1R) [nM],IC50 (human orexin-2 receptor) [nM]
"CCN(CCc1ccnc(C(C)(C)O)n1)C(=O)c1ccccc1-n1nccn1 [Example 40, N-Ethyl-N-(2-(2-(2-hydroxypropan-2-yl)pyrimidin-4-yl)ethyl)-2-(2H-1,2,3-triazol-2-yl)benzamide]",> 10000,74
"CCN(CCc1ccc(C(C)(C)O)cn1)C(=O)c1ccccc1C1CCC1 [Example 62, 2-cyclobutyl-N-ethyl-N-{2-[5-(1-hydroxy-1-methylethyl)pyridin-2-yl]ethyl}benzamide]",> 10000,62
"CCN(CCc1ccc(C(C)(C)O)cn1)C(=O)c1ccccc1-n1ncnn1 [Example 55, N-ethyl-N-{2-[5-(1-hydroxy-1-methylethyl)pyridin-2-yl]ethyl}-2-(2H-tetrazol-2-yl)benzamide]",> 10000,388
"CCN(CCc1cncc(C(C)(C)O)n1)C(=O)c1ccccc1-n1nccn1 [Example 39, N-Ethyl-N-{2-[6-(1-hydroxy-1-methylethyl)pyrazin-2-yl]ethyl}-2-(2H-1,2,3-triazol-2-yl)benzamide]",> 10000,68
"CCN(CCc1cccc(C(C)(C)O)n1)C(=O)c1ccccc1OCC(F)(F)F [Example 17, N-ethyl-N-(2-(6-(2-hydroxypropan-2-yl)pyridin-2-yl)ethyl)-2-(2,2,2-trifluoroethoxy)benzamide]",> 10000,261
"CCN(CCc1cccc(C(C)(C)O)n1)C(=O)c1ccccc1CC(F)F [Example 23, 2-(2,2-difluoroethyl)-N-ethyl-N-(2-(6-(2-hydroxypropan-2-yl)pyridin-2-yl)ethyl)benzamide]",> 10000,142
"CCN(CCc1ccc(C(C)(C)O)cn1)C(=O)c1ccccc1C1CC1(F)F (centres unmarked) [Example 63, 2-(2,2-difluorocyclopropyl)-N-ethyl-N-{2-[5-(1-hydroxy-1-methylethyl)pyridin-2-yl]ethyl}benzamide]",> 10000,38
"CCN(CCc1cccc(C(C)(C)O)n1)C(=O)c1ccccc1N1CCCC1 [Example 28, N-ethyl-N-(2-(6-(2-hydroxypropan-2-yl)pyridin-2-yl)ethyl)-2-(pyrrolidin-1-yl)benzamide]",> 10000,88
"CCN(CCc1cc(C(C)(C)O)ccn1)C(=O)c1ccccc1-n1nccn1 [Example 1, N-Ethyl-N-{2-[4-(1-hydroxy-1-methylethyl)pyridin-2-yl]ethyl}-2-(2H-1,2,3-triazol-2-yl)benzamide]",> 10000,69
"CCN(CCc1ccc(C(C)(C)O)cn1)C(=O)c1cccnc1OCC(F)(F)F [Example 56, N-ethyl-N-{2-[5-(1-hydroxy-1-methylethyl)pyridin-2-yl]ethyl}-2-(2,2,2-trifluoroethoxy)pyridine-3-carboxamide]",> 10000,430
"CCN(CCc1cccc(C(C)(C)O)n1)C(=O)c1ccccc1C1CC1(F)F (centres unmarked) [Example 31, 2-(2,2-difluorocyclopropyl)-N-ethyl-N-(2-(6-(2-hydroxypropan-2-yl)pyridin-2-yl)ethyl)benzamide]",9040,14
"CCN(CCc1ccc(C(C)(C)O)cn1)C(=O)c1cccnc1-n1cccn1 [Example 49, N-Ethyl-N-{2-[5-(1-hydroxy-1-methylethyl)pyridin-2-yl]ethyl}-2-(1H-pyrazol-1-yl)pyridine-3-carboxamide]",> 10000,252
"CCN(CCc1cccc(C(C)(C)O)n1)C(=O)c1cccnc1OCC(F)(F)F [Example 10, N-ethyl-N-{2-[6-(1-hydroxy-1-methylethyl)pyridin-2-yl]ethyl}-2-(2,2,2-trifluoroethoxy)pyridine-3-carboxamide]",> 10000,69
"CCN(CCc1cccc(C(C)(C)O)n1)C(=O)c1ccccc1OCC(F)F [Example 20, 2-(2,2-difluoroethoxy)-N-ethyl-N-(2-(6-(2-hydroxypropan-2-yl)pyridin-2-yl)ethyl)benzamide]",> 10000,136
"CCN(CCc1cccc(C(C)(C)O)n1)C(=O)c1ccccc1-n1cccn1 [Example 12, N-ethyl-N-{2-[6-(1-hydroxy-1-methylethyl)pyridin-2-yl]ethyl}-2-(1H-pyrazol-1-yl)benzamide]",> 10000,66
"CCN(CCc1cc(C)c(C(C)(C)O)cn1)C(=O)c1ccccc1-n1nccn1 [Example 47, N-Ethyl-N-(2-(5-(2-hydroxypropan-2-yl)-4-methylpyridin-2-yl)ethyl)-2-(2H-1,2,3-triazol-2-yl)benzamide]",1560,16
"CCN(CCc1ncc(C(C)(C)O)cn1)C(=O)c1ccccc1-n1nccn1 [Example 41, N-Ethyl-N-(2-(5-(2-hydroxypropan-2-yl)pyrimidin-2-yl)ethyl)-2-(2H-1,2,3-triazol-2-yl)benzamide]",3230,86
"CCN(CCc1ccc(C)c(C(C)(C)O)n1)C(=O)c1ccccc1-n1nccn1 [Example 48, N-Ethyl-N-(2-(6-(2-hydroxypropan-2-yl)-5-methylpyridin-2-yl)ethyl)-2-(2H-1,2,3-triazol-2-yl)benzamide]",791,6
"CCN(CCc1nccc(C(C)(C)O)n1)C(=O)c1ccccc1-n1nccn1 [Example 44, N-Ethyl-N-(2-(4-(2-hydroxypropan-2-yl)pyrimidin-2-yl)ethyl)-2-(2H-1,2,3-triazol-2-yl)benzamide]",> 10000,58
"CCN(CCc1ccc(C(C)(C)O)cn1)C(=O)c1ccccc1N1CCCC1 [Example 51, N-ethyl-N-{2-[5-(1-hydroxy-1-methylethyl)pyridin-2-yl]ethyl}-2-pyrrolidin-1-ylbenzamide]",> 10000,76
"CCN(CCc1cccc(C(C)(C)O)n1)C(=O)c1ccccc1-c1ncccn1 [Example 32, N-Ethyl-N-(2-(6-(2-hydroxypropan-2-yl)pyridin-2-yl)ethyl)-2-(pyrimidin-2-yl)benzamide]",7360,16
"CCOc1ncccc1C(=O)N(CC)CCc1cccc(C(C)(C)O)n1 [Example 6, 2-ethoxy-N-ethyl-N-{2-[6-(1-hydroxy-1-methylethyl)pyridin-2-yl]ethyl}pyridine-3-carboxamide]",> 10000,206

# Reference: patent publication US10239838B2, “Heteroaryl orexin receptor antagonists” (Merck Sharp & Dohme Corp., priority 2014, dated 2019)
